Measurements published in patent US20160158200A1, “Combinations of Hepatitis C Virus Inhibitors” (priority 2013, published 2016).

Tested on: HCV genotype-1a variant with glutamine 30 changed to glutamate in the NS5A protein
Format: cell-based
Details: test compound titrated with BMS-790052 fixed at 200 nM; genotype 1a Q30E replicon
Source text: The NS5A synergistic inhibitory effect of test compounds can be determined using various amounts of an NS5A-targeting compound with titration of a second compound of interest. […] In one embodiment, the HCV genotype strain can be genotype 1a containing a change at amino acid 30 of the NS5A protein consisting of glutamine to glutamate. The test compound can be chosen from compounds listed above or from others present in the literature.

CC(O)C1(C(=O)N[C@H](c2ncc(-c3ccc(-c4ccc(-c5cnc([C@@H](NC(=O)C6(C(C)O)CC6)C(C)(C)C)[nH]5)cc4)cc3)[nH]2)C(C)(C)C)CC1 (single isomer, unassigned) [Compound B75]
Fold-Synergistic 1a (Q30E): >100 fold

CC(O)C(C)(C)C(=O)N[C@H](c1ncc(-c2ccc(-c3ccc(-c4cnc([C@@H](NC(=O)C(C)(C)C(C)O)C(C)(C)C)[nH]4)cc3)cc2)[nH]1)C(C)(C)C (single isomer, unassigned) [Compound B76]
Fold-Synergistic 1a (Q30E): >100 fold

CC(O)C(C)(C)C(=O)N[C@H](c1ncc(-c2ccc(-c3ccc(-c4cnc([C@@H](NC(=O)C(C)(C)C(C)O)C(C)(C)C)[nH]4)cc3)cc2)[nH]1)C(C)(C)C (single isomer, unassigned) [Compound B78]
Fold-Synergistic 1a (Q30E): >100 fold

CC1(C)CC1C(=O)N[C@H](c1ncc(-c2ccc(-c3ccc(-c4cnc([C@@H](NC(=O)C5CC5(C)C)C(C)(C)C)[nH]4)cc3)cc2)[nH]1)C(C)(C)C (single isomer, unassigned) [Compound B79]
Fold-Synergistic 1a (Q30E): >100 fold

CC1(C)CC1C(=O)N[C@H](c1ncc(-c2ccc(-c3ccc(-c4cnc([C@@H](NC(=O)C5CC5(C)C)C(C)(C)C)[nH]4)cc3)cc2)[nH]1)C(C)(C)C (single isomer, unassigned) [Compound B80]
Fold-Synergistic 1a (Q30E): >100 fold

CC1(C)CC1C(=O)N[C@H](c1ncc(-c2ccc(-c3ccc(-c4cnc([C@@H](NC(=O)C5CC5(C)C)C(C)(C)C)[nH]4)cc3)cc2)[nH]1)C(C)(C)C (single isomer, unassigned) [Compound B81]
Fold-Synergistic 1a (Q30E): >100 fold

CC(C)(C(=O)N[C@H](c1nc(-c2ccc(-c3ccc(-c4cnc([C@@H](NC(=O)C(C)(C)C5CCCO5)C(C)(C)C)[nH]4)cc3)cc2)c[nH]1)C(C)(C)C)C1CCCO1 (single isomer, unassigned) [Compound B170]
Fold-Synergistic 1a (Q30E): >100 fold

CC(C)(C)[C@H](NC(=O)C1C2CCOC21)c1nc(-c2ccc(-c3ccc(-c4cnc([C@@H](NC(=O)C5C6CCOC65)C(C)(C)C)[nH]4)cc3)cc2)c[nH]1 (single isomer, unassigned) [Compound B-163]
Fold-Synergistic 1a (Q30E): >100 fold

CC(C)(C)[C@H](NC(=O)C1C2CCOC21)c1nc(-c2ccc(-c3ccc(-c4cnc([C@@H](NC(=O)C5C6CCOC65)C(C)(C)C)[nH]4)cc3)cc2)c[nH]1 (single isomer, unassigned) [Compound B-164]
Fold-Synergistic 1a (Q30E): >100 fold

CC(C)(C)[C@H](NC(=O)C1C2CCOC21)c1nc(-c2ccc(-c3ccc(-c4cnc([C@@H](NC(=O)C5C6CCOC65)C(C)(C)C)[nH]4)cc3)cc2)c[nH]1 (single isomer, unassigned) [Compound B-165]
Fold-Synergistic 1a (Q30E): >100 fold

CC(C)(C(=O)N[C@H](c1nc(-c2ccc(-c3ccc(-c4cnc([C@@H](NC(=O)C(C)(C)C5CCCO5)C(C)(C)C)[nH]4)cc3)cc2)c[nH]1)C(C)(C)C)C1CCCO1 (single isomer, unassigned) [Compound B-169]
Fold-Synergistic 1a (Q30E): >100 fold

CC(C)(C(=O)N[C@H](c1nc(-c2ccc(-c3ccc(-c4cnc([C@@H](NC(=O)C(C)(C)C5CCCO5)C(C)(C)C)[nH]4)cc3)cc2)c[nH]1)C(C)(C)C)C1CCCO1 (single isomer, unassigned) [Compound B-171]
Fold-Synergistic 1a (Q30E): >100 fold

CC(C)[C@H](NC(=O)C1(C(C)O)CC1)c1ncc(-c2ccc(-c3ccc(-c4cnc([C@@H](NC(=O)C5(C(C)O)CC5)C(C)C)n4C)cc3)cc2)n1C (single isomer, unassigned) [Compound B-202]
Fold-Synergistic 1a (Q30E): >10 fold

CC(C)[C@H](NC(=O)C1(C(C)O)CC1)c1ncc(-c2ccc(-c3ccc(-c4cnc([C@@H](NC(=O)C5(C(C)O)CC5)C(C)C)n4C)cc3)cc2)n1C (single isomer, unassigned) [Compound B-204]
Fold-Synergistic 1a (Q30E): >10 fold

CC(C)(C)OC(=O)N1CCCCC1(C)C(=O)N[C@H](c1nc(-c2ccc(-c3ccc(-c4c[nH]c([C@@H](NC(=O)C5(C)CCCCN5C(=O)OC(C)(C)C)C(C)(C)C)n4)cc3)cc2)c[nH]1)C(C)(C)C (single isomer, unassigned) [Compound L-46a]
Fold-Synergistic 1a (Q30E): >100 fold

CC(C)(C)OC(=O)N1CCCCC1(C)C(=O)N[C@H](c1nc(-c2ccc(-c3ccc(-c4c[nH]c([C@@H](NC(=O)C5(C)CCCCN5C(=O)OC(C)(C)C)C(C)(C)C)n4)cc3)cc2)c[nH]1)C(C)(C)C (single isomer, unassigned) [Compound L-46b]
Fold-Synergistic 1a (Q30E): >100 fold

CC(C)(C)OC(=O)N1CCCCC1(C)C(=O)N[C@H](c1nc(-c2ccc(-c3ccc(-c4c[nH]c([C@@H](NC(=O)C5(C)CCCCN5C(=O)OC(C)(C)C)C(C)(C)C)n4)cc3)cc2)c[nH]1)C(C)(C)C (single isomer, unassigned) [Compound L-46c]
Fold-Synergistic 1a (Q30E): >100 fold

CC(C)(C)C(NC(=O)C1(C)CC1(F)F)c1nc(-c2ccc(-c3ccc(-c4c[nH]c(C(NC(=O)C5(C)CC5(F)F)C(C)(C)C)n4)cc3)cc2)c[nH]1 (single isomer, unassigned) [Compound L-58a]
Fold-Synergistic 1a (Q30E): >100 fold

CC(C)(C)C(NC(=O)C1(C)CC1(F)F)c1nc(-c2ccc(-c3ccc(-c4c[nH]c(C(NC(=O)C5(C)CC5(F)F)C(C)(C)C)n4)cc3)cc2)c[nH]1 (single isomer, unassigned) [Compound L-58b]
Fold-Synergistic 1a (Q30E): >100 fold

CC(C)(C)C(NC(=O)C(C)(O)C(F)(F)F)c1nc(-c2ccc(-c3ccc(-c4c[nH]c(C(NC(=O)C(C)(O)C(F)(F)F)C(C)(C)C)n4)cc3)cc2)c[nH]1.O=C(O)C(F)(F)F.O=C(O)C(F)(F)F (single isomer, unassigned) [Compound L-66a]
Fold-Synergistic 1a (Q30E): >100 fold

CC(C)(C)C(NC(=O)C(C)(O)C(F)(F)F)c1nc(-c2ccc(-c3ccc(-c4c[nH]c(C(NC(=O)C(C)(O)C(F)(F)F)C(C)(C)C)n4)cc3)cc2)c[nH]1.O=C(O)C(F)(F)F.O=C(O)C(F)(F)F (single isomer, unassigned) [Compound L-66b]
Fold-Synergistic 1a (Q30E): >100 fold

CC(C)(C)[C@H](NC(=O)C(C)(O)C1(C)CC1)c1nc(-c2ccc(-c3ccc(-c4c[nH]c([C@@H](NC(=O)C(C)(O)C5(C)CC5)C(C)(C)C)n4)cc3)cc2)c[nH]1 (single isomer, unassigned) [Compound L-93a]
Fold-Synergistic 1a (Q30E): >100 fold

CC(C)(C)[C@H](NC(=O)C(C)(O)C1(C)CC1)c1nc(-c2ccc(-c3ccc(-c4c[nH]c([C@@H](NC(=O)C(C)(O)C5(C)CC5)C(C)(C)C)n4)cc3)cc2)c[nH]1 (single isomer, unassigned) [Compound L-93c]
Fold-Synergistic 1a (Q30E): >100 fold

CC(C)(C)[C@H](NC(=O)C1CCCCC1CO)c1nc(-c2ccc(-c3ccc(-c4c[nH]c([C@@H](NC(=O)C5CCCCC5CO)C(C)(C)C)n4)cc3)cc2)c[nH]1 (single isomer, unassigned) [Compound L-141a]
Fold-Synergistic 1a (Q30E): >100 fold

CC(C)(C)[C@H](NC(=O)C1CCCCC1CO)c1nc(-c2ccc(-c3ccc(-c4c[nH]c([C@@H](NC(=O)C5CCCCC5CO)C(C)(C)C)n4)cc3)cc2)c[nH]1 (single isomer, unassigned) [Compound L-141b]
Fold-Synergistic 1a (Q30E): >100 fold

CC(C)(C)[C@H](NC(=O)C1CCCCC1CO)c1nc(-c2ccc(-c3ccc(-c4c[nH]c([C@@H](NC(=O)C5CCCCC5CO)C(C)(C)C)n4)cc3)cc2)c[nH]1 (single isomer, unassigned) [Compound L-141c]
Fold-Synergistic 1a (Q30E): >100 fold

CC(C)(F)C(NC(=O)C1CCC(F)(F)CC1)c1nc(-c2ccc(-c3ccc(-c4c[nH]c(C(NC(=O)C5CCC(F)(F)CC5)C(C)(C)F)n4)cc3)cc2)c[nH]1 (single isomer, unassigned) [Compound N-106A]
Fold-Synergistic 1a (Q30E): >100 fold

CC(C)(F)C(NC(=O)C1CCC(F)(F)CC1)c1nc(-c2ccc(-c3ccc(-c4c[nH]c(C(NC(=O)C5CCC(F)(F)CC5)C(C)(C)F)n4)cc3)cc2)c[nH]1 (single isomer, unassigned) [Compound N-106B]
Fold-Synergistic 1a (Q30E): >100 fold

CC(C)(F)C(NC(=O)C1CCC(F)(F)CC1)c1nc(-c2ccc(-c3ccc(-c4c[nH]c(C(NC(=O)C5CCC(F)(F)CC5)C(C)(C)F)n4)cc3)cc2)c[nH]1 (single isomer, unassigned) [Compound N-106C]
Fold-Synergistic 1a (Q30E): >100 fold

CC(C)(C)C(=O)NC(c1nc(-c2ccc(-c3ccc(-c4c[nH]c(C(NC(=O)C(C)(C)C)C5(C(F)(F)F)CC5)n4)cc3)cc2)c[nH]1)C1(C(F)(F)F)CC1 (single isomer, unassigned) [Compound N-107A]
Fold-Synergistic 1a (Q30E): >100 fold

CC(C)(C)C(=O)NC(c1nc(-c2ccc(-c3ccc(-c4c[nH]c(C(NC(=O)C(C)(C)C)C5(C(F)(F)F)CC5)n4)cc3)cc2)c[nH]1)C1(C(F)(F)F)CC1 (single isomer, unassigned) [Compound N-107B]
Fold-Synergistic 1a (Q30E): >10 fold

O=C(NC(c1nc(-c2ccc(-c3ccc(-c4c[nH]c(C(NC(=O)C5CCC(F)(F)CC5)C5(C(F)(F)F)CC5)n4)cc3)cc2)c[nH]1)C1(C(F)(F)F)CC1)C1CCC(F)(F)CC1.O=C(O)C(F)(F)F (single isomer, unassigned) [Compound N-109B]
Fold-Synergistic 1a (Q30E): >100 fold

CC(C)(C(=O)N[C@H](c1nc(-c2ccc(-c3ccc(-c4c[nH]c([C@@H](NC(=O)C(C)(C)C(O)c5ccccc5F)C(C)(C)C)n4)cc3)cc2)c[nH]1)C(C)(C)C)C(O)c1ccccc1F (single isomer, unassigned) [Compound N-124A]
Fold-Synergistic 1a (Q30E): >100 fold

CC(C)(C(=O)N[C@H](c1nc(-c2ccc(-c3ccc(-c4c[nH]c([C@@H](NC(=O)C(C)(C)C(O)c5ccccc5F)C(C)(C)C)n4)cc3)cc2)c[nH]1)C(C)(C)C)C(O)c1ccccc1F (single isomer, unassigned) [Compound N-124B]
Fold-Synergistic 1a (Q30E): >100 fold
